Measured values taken from PMC9138505, “Small Molecule 20S Proteasome Enhancer Regulates MYC Protein Stability and Exhibits Antitumor Activity in Multiple Myeloma” (Biomedicines, 2022).
Several values for one entry are separate records, joined by “and”; a condition that tells them apart may be missing. Identical values can stand only once.

Tested on: RPMI-8226 cells
Test: Gene expression profiling, NanoString nCounter PanCancer Pathways Panel, ROSALIND analysis
Format: cell-based, human
Details: RPMI-8226, TCH-165 samples 1-3
Description: RPMI-8226 cells were treated with vehicle or TCH-165 (10 μM) for 4 h. Total RNA was obtained using the mirVana miRNA Isolation Kit, with phenol (Thermofisher Scientific; AM1560; Waltham, MA, USA). Total RNA was quantified by Qubit (Thermofisher Scientific; Q32855; Waltham, MA, USA). and gene expression was evaluated against the nCounter® PanCancer Pathways Panel^TM according to the standard NanoString protocol.
Data were analyzed by ROSALIND® [36] with a hyperscale architecture developed by ROSALIND, Inc. (San Diego, CA, USA). Normalization, fold changes and p-values were calculated using criteria provided by NanoString. ROSALIND follows the nCounter® Advanced Analysis protocol of dividing counts within a lane by the geometric mean of the normalizer probes from the same lane. Housekeeping probes to be used for normalization are selected based on the geNorm algorithm, as implemented in the NormqPCR R library. Fold changes and p-values are calculated using the fast method as described in the nCounter Advanced Analysis 2.0 User Manual. The p-value adjustment is performed using the Benjamini–Hochberg method of estimating false discovery rates (FDR). Clustering of genes for the final heatmap of differentially expressed genes was done using the PAM (Partitioning Around Medoids) method using the fpc R library. Hypergeometric distribution was used to analyze the enrichment of pathways, gene ontology, domain structure and other ontologies. The topGO R library was used to determine local similarities and dependencies between GO terms in order to perform Elim pruning correction. Several database sources were referenced for enrichment analysis, including Interpro [40], NCBI [41], MSigDB [42, 43], REACTOME [44], WikiPathways. Enrichment was calculated relative to a set of background genes relevant to the experiment.

`CCOC(=O)[C@]1(c2ccccc2)N=C(c2ccc(OC)cc2)N(Cc2ccccc2)[C@@H]1c1ccc(NCc2ccccc2)cc1` [TCH-165] was tested, and the “LIFR normalized gene expression” value was 4.488 and 4.2133 and 4.184, the “LIG4 normalized gene expression” value was 6.629 and 6.817 and 6.796 and the “LRP2 normalized gene expression” value was 4.308 and 3.657 and 4.341. For the same molecule, the “LTBP1 normalized gene expression” value was 6.378 and 6.402 and 6.366, the “MAD2L2 normalized gene expression” value was 10.1336 and 10.1942 and 10.1645 and the “MAP2K1 normalized gene expression” value was 10.0208 and 10.0248 and 9.981. For the same molecule, the “MAP2K2 normalized gene expression” value was 10.108 and 10.1628 and 10.1486, the “MAP2K4 normalized gene expression” value was 7.169 and 6.524 and 6.893 and the “MAP2K6 normalized gene expression” value was 4.924 and 4.855 and 5.0068. The “MAP3K1 normalized gene expression” value was 10.6246 and 10.5002 and 10.4469, the “MAP3K5 normalized gene expression” value was 6.704 and 6.918 and 6.75 and the “MAP3K8 normalized gene expression” value was 6.308 and 6.569 and 6.506. For the same molecule, the “MAP3K12 normalized gene expression” value was 5.571 and 5.476 and 5.0682, the “MAP3K13 normalized gene expression” value was 7.948 and 7.905 and 8.019 and the “MAP3K14 normalized gene expression” value was 7.978 and 7.887 and 7.688. For the same molecule, the “MAPK1 normalized gene expression” value was 8.625 and 8.638 and 8.461, the “MAPK3 normalized gene expression” value was 9.736 and 9.67 and 9.676 and the “MAPK8IP1 normalized gene expression” value was 5.86 and 4.739 and 5.0068. The “MAPK8IP2 normalized gene expression” value was 4.208 and 3.657 and 4.39, the “MAPK8 normalized gene expression” value was 7.835 and 7.506 and 7.597 and the “MAPK9 normalized gene expression” value was 8.658 and 8.617 and 8.437. The “MAPK10 normalized gene expression” value was 5.101 and 4.2133 and 4.876, the “MAPK12 normalized gene expression” value was 7.499 and 7.109 and 7.1906 and the “MAPT normalized gene expression” value was 5.355 and 5.351 and 5.5707. For the same molecule, the “MCM2 normalized gene expression” value was 10.402 and 10.4329 and 10.4331, the “MCM4 normalized gene expression” value was 11.2136 and 11.1596 and 11.149 and the “MCM5 normalized gene expression” value was 10.3105 and 10.197 and 10.1802. The “MCM7 normalized gene expression” value was 13.0908 and 13.0284 and 12.9867, the “MDC1 normalized gene expression” value was 10.2272 and 10.2142 and 10.1897 and the “MDM2 normalized gene expression” value was 10.4133 and 10.3393 and 10.3264. For the same molecule, the “MECOM normalized gene expression” value was 7.156 and 6.927 and 6.814, the “MED12 normalized gene expression” value was 8.477 and 8.644 and 8.469 and the “MEN1 normalized gene expression” value was 9.714 and 9.644 and 9.611. For the same molecule, the “MET normalized gene expression” value was 5.924 and 5.093 and 5.613, the “MFNG normalized gene expression” value was 9.115 and 9.16 and 9.044 and the “MGMT normalized gene expression” value was 8.108 and 8.085 and 8.034. For the same molecule, the “MLF1 normalized gene expression” value was 5.86 and 5.9093 and 5.712, the “MLH1 normalized gene expression” value was 9.392 and 9.378 and 9.34 and the “MLLT3 normalized gene expression” value was 6.776 and 6.688 and 6.449. For the same molecule, the “MLLT4 normalized gene expression” value was 8.677 and 8.597 and 8.636, the “MMP3 normalized gene expression” value was 4.401 and 3.27 and 4.341 and the “MMP7 normalized gene expression” value was 5.571 and 5.242 and 5.238. For the same molecule, the “MMP9 normalized gene expression” value was 4.649 and 4.855 and 4.0068, the “MNAT1 normalized gene expression” value was 8.319 and 8.402 and 8.366 and the “MPL normalized gene expression” value was 4.308 and 4.154 and 3.805. The “MPO normalized gene expression” value was 4.986 and 4.569 and 4.876, the “MSH2 normalized gene expression” value was 9.884 and 9.976 and 9.945 and the “MSH6 normalized gene expression” value was 10.1754 and 9.989 and 10.0455. For the same molecule, the “MTOR normalized gene expression” value was 9.008 and 8.985 and 8.893, the “MUTYH normalized gene expression” value was 6.74 and 6.512 and 6.663 and the “MYB normalized gene expression” value was 9.142 and 9.166 and 9.1468. The “MYC normalized gene expression” value was 12.5611 and 12.5765 and 12.4952, the “MYCN normalized gene expression” value was 7.142 and 6.817 and 6.893 and the “MYD88 normalized gene expression” value was 8.723 and 8.683 and 8.623. The “NASP normalized gene expression” value was 8.252 and 8.093 and 8.307, the “NBN normalized gene expression” value was 10.4814 and 10.4965 and 10.3946 and the “NCOR1 normalized gene expression” value was 9.769 and 9.64 and 9.618. For the same molecule, the “NF1 normalized gene expression” value was 9.325 and 9.277 and 9.208, the “NF2 normalized gene expression” value was 9.205 and 9.097 and 9.096 and the “NFATC1 normalized gene expression” value was 5.355 and 5.427 and 5.461. For the same molecule, the “NFE2L2 normalized gene expression” value was 10.2602 and 10.1647 and 10.2373, the “NFKB1 normalized gene expression” value was 8.156 and 8.124 and 8.177 and the “NFKBIA normalized gene expression” value was 9.249 and 9.354 and 9.231. For the same molecule, the “NGFR normalized gene expression” value was 5.445 and 5.154 and 5.098, the “NODAL normalized gene expression” value was 5.445 and 5.093 and 4.876 and the “NOG normalized gene expression” value was 4.208 and 4.739 and 4.653. The “NOS3 normalized gene expression” value was 5.044 and 4.524 and 4.5707, the “NOTCH1 normalized gene expression” value was 8.62 and 8.452 and 8.261 and the “NOTCH2 normalized gene expression” value was 10.6545 and 10.568 and 10.5378. The “NPM1 normalized gene expression” value was 7.667 and 7.529 and 7.245, the “NPM2 normalized gene expression” value was 2.401 and 2.739 and 2.805 and the “NR4A1 normalized gene expression” value was 6.924 and 6.944 and 6.759. The “NR4A3 normalized gene expression” value was 4.488 and 4.427 and 4.769, the “NRAS normalized gene expression” value was 7.581 and 7.678 and 7.663 and the “NTF3 normalized gene expression” value was 7.456 and 7.1988 and 7.251. The “NTHL1 normalized gene expression” value was 9.395 and 9.328 and 9.318, the “NTRK1 normalized gene expression” value was 4.793 and 3.569 and 3.483 and the “NTRK2 normalized gene expression” value was 4.793 and 5.093 and 4.5707. The “NUMBL normalized gene expression” value was 5.955 and 5.891 and 5.693, the “NUPR1 normalized gene expression” value was 6.073 and 6.228 and 6.3536 and the “OSM normalized gene expression” value was 5.101 and 5.636 and 5.0682. The “PAK3 normalized gene expression” value was 4.488 and 4.27 and 3.876, the “PAX3 normalized gene expression” value was 4.649 and 4.029 and 4.0682 and the “PAX5 normalized gene expression” value was 4.986 and 3.962 and 4.693. For the same molecule, the “PAX8 normalized gene expression” value was 5.723 and 5.297 and 5.366, the “PBRM1 normalized gene expression” value was 9.417 and 9.5 and 9.432 and the “PBX1 normalized gene expression” value was 8.776 and 8.575 and 8.5707. The “PBX3 normalized gene expression” value was 6.53 and 6.427 and 6.426, the “PCK1 normalized gene expression” value was 3.208 and 3.3768 and 3.0682 and the “PCNA normalized gene expression” value was 10.03 and 10.0442 and 10.0502.
